Biological target: Genome polyprotein (Hepatitis C virus genotype 1b (isolate BK), UniProt P26663)
Experiment: NS5B Inhibition Assay
Details: pH 7; 30 °C
Source text: Inhibition assay using HCV NS5B.

Genome polyprotein, sequence (P26663 2420-3010 limits assumed): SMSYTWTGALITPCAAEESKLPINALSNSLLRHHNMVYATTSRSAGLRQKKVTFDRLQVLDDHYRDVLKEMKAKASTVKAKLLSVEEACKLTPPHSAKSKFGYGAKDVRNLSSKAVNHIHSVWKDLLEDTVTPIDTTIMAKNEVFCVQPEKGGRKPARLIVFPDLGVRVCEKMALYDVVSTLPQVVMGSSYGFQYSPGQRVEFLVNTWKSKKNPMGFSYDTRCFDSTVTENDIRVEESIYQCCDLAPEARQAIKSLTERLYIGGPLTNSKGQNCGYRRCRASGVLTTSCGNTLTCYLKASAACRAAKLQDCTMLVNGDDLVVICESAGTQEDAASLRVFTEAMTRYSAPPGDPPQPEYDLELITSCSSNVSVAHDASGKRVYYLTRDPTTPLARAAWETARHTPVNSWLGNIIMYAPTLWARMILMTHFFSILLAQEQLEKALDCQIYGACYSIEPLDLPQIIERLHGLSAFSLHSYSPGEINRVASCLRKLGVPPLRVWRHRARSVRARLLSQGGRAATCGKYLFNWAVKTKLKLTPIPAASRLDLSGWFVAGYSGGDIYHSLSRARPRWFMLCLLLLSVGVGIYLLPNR

SMILES	IC50
C=CCc1c(O)c(CC=C)c2oc(=O)ccc2c1O [Neoflavonoid derivative, 8a]	17.9 µM
O=c1ccc2ccc(O)cc2o1 [umbelliferone]	36.6 µM
Cc1cc(=O)oc2cc(O)cc(O)c12 [Coumarin derivative, 1b]	47.2 µM
COc1cc(OC)c2c(C)cc(=O)oc2c1 [Coumarin derivative, 2b]	54.1 µM
COc1cc(OC)c2ccc(=O)oc2c1 [Coumarin derivative, 2a]	58 µM
O=c1ccc2c(O)cc(O)cc2o1 [Coumarin derivative, 1a]	39.7 µM
COc1cc2c(cc1O)oc(=O)c1c3cc(O)c(O)cc3oc21 [LQB-34]	18 µM
Cc1cc(=O)oc2cc(O)ccc12 [4-Methyl-7-hydroxycoumarin]	33.8 µM

Further lines, results first:

IC50	SMILES
38.4 µM	C=CCOc1cc(OCC=C)c2c(C)cc(=O)oc2c1 [Neoflavonoid derivative, 6b]
45.8 µM	C=CCc1c(O)c(CC=C)c2oc(=O)cc(-c3ccccc3)c2c1O [Neoflavonoid derivative, 8c]
27 µM	O=c1cc(-c2ccccc2)c2c(O)cc(O)cc2o1
26.2 µM	C=CCOc1cc(OCC=C)c2ccc(=O)oc2c1 [Neoflavonoid derivative, 6a]
41.6 µM	O=c1cc(-c2ccccc2)c2ccc(O)cc2o1 [7-Hydroxy-4-phenyl-chromen-2-one]
63 µM	COc1cc(OC)c2c(-c3ccccc3)cc(=O)oc2c1 [5,7-dimethoxy-4-phenyl-chromen-2-one]
30.3 µM	C=CCOc1cc(OCC=C)c2c(-c3ccccc3)cc(=O)oc2c1 [Neoflavonoid derivative, 6c]

Reference: BindingDB's records for doi:10.1111/cbdd.12105 (Umdnj-New Jersey Medical School, 2013)
